Experimental data published in PubChem BioAssay (NCI).
Several values for one entry are separate records, joined by “and”; a condition that tells them apart may be missing. Equal entries are not always repeated.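 Values below derive from 48-hour exposures of cells grown in 96-well plates, with endpoints linearly interpolated between the two concentrations bracketing the appropriate inhibition level. GI50 marks 50% less growth. TGI: concentration producing complete growth inhibition.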

Assays:
Experiment in all cases: inhibition of tumour cell growth, NCI panel, 48 h
[1] = test system: NCI/ADR-RES ovarian
[2] = test system: MOLT-4 leukemia
[3] = test system: U251 CNS
[4] = test system: T-47D breast
[5] = test system: MDA-MB-435
[6] = test system: HCC-2998 colon
[7] = test system: SK-OV-3 ovarian
[8] = test system: UACC-62 melanoma

Row | SMILES | TGI [1] | TGI [2] | TGI [3] | TGI [4] | TGI [5] | TGI [6] | TGI [7] | TGI [8] | GI50 [1] | GI50 [8] | GI50 [2] | GI50 [3] | GI50 [4] | GI50 [5] | GI50 [6] | GI50 [7]
1 | O=C(O)CC1C(=O)OC2C3COC(=O)c4cc(O)c(O)c(O)c4-c4c(cc(O)c(O)c4O)C(=O)OC2C(OC(=O)c2cc(O)c(O)c4c2C1C(O)C(=O)O4)C(OC(=O)c1cc(O)c(O)c(O)c1)O3 (configuration not stated) | 46.9 µM | 95 µM | 73 µM | > 100 µM | 83 µM | > 100 µM | > 100 µM | – | – | – | – | – | – | – | – | –
2 | O=C(NCCSSCCNC(=O)/C(Cc1ccc(O)c(Br)c1)=N/O)/C(Cc1ccc(O)c(Br)c1)=N/O | 7.97 µM | 8.58 µM | 4.53 µM | 13.1 µM | > 24.9 µM | 8.11 µM | 3.32 µM | 7.32 µM | – | – | – | – | – | – | – | –
3 | Nc1nc2c(c(=O)[nH]1)N=C(COP(=O)(O)OP(=O)(O)O)CN2 | > 100 µM | > 100 µM | > 100 µM | > 100 µM | > 100 µM | > 100 µM | > 100 µM | > 100 µM | – | – | – | – | – | – | – | –
4 | CCOC(=O)C1=C(C)NC(C)=C(C(=O)OCC)C1c1cc(Br)c(O)c(OC)c1 | 9.4 µM | 52.4 µM | 15.6 µM | 46.6 µM | 6.2 µM | 10.8 µM | 7.38 µM | 17 µM | 2.71 µM | 4.71 µM | 3.61 µM | 4.01 µM | 8.53 µM | 1.85 µM | 3.12 µM | 2.92 µM
5 | Cc1cn(C2CC(N=[N+]=[N-])C(CO)O2)c(=O)[nH]c1=O (configuration not stated) | > 1000 µM | > 1000 µM | – | > 1000 µM | > 1000 µM | > 1000 µM | > 1000 µM | > 1000 µM | 296 µM | – | > 1000 µM | – | > 1000 µM | – | > 1000 µM | > 1000 µM
6 | Cc1ccc(-n2nnc3c(sc4ccccc43)c2=O)cc1 | > 100 µM | > 100 µM | 19 µM | > 100 µM | > 100 µM | > 100 µM | 19.4 µM | > 100 µM | 9.35 µM | 51.7 µM | > 100 µM | 3.38 µM | 30.4 µM | 14.6 µM | 68.7 µM | 3.54 µM
7 | O=C(O)c1ccccc1-c1ccccc1C(=O)Nc1ccc2c(c1)Cc1ccccc1-2 | > 100 µM | – | > 100 µM | > 100 µM | > 100 µM | 33.4 µM | > 100 µM | 32 µM | – | – | – | – | – | – | – | –
8 | CCOC(=O)c1c(C(F)(F)F)n([O-])c2ccc(Cl)cc2[n+]1=O | 6 µM | 5.18 µM | 3.36 µM | 4.38 µM | 3.85 µM | – | 16.1 µM | 3.71 µM | 2.8 µM | 1.72 µM | 2.32 µM | 1.75 µM | 2.03 µM | 1.68 µM | – | 4.14 µM
9 | CC(=O)NC1CCCN(O)C(=O)/C=C(/C)CCOC(=O)C(NC(C)=O)CCCN(O)C(=O)/C=C(/C)CCOC(=O)C(NC(C)=O)CCCN(O)C(=O)/C=C(/C)CCOC1=O.[Fe] (configuration not stated) | > 100 µM | > 100 µM | > 100 µM | > 100 µM | > 100 µM | > 100 µM | – | > 100 µM | > 100 µM | > 100 µM | > 100 µM | > 100 µM | > 100 µM | > 100 µM | > 100 µM | –
10 | O=S(=O)(CC(O)C(Cl)(Cl)Cl)NNc1ccccc1 (configuration not stated) | > 100 µM | > 100 µM | > 100 µM | > 100 µM | > 100 µM | – | > 100 µM | > 100 µM | – | – | – | – | – | – | – | –
11 | O=C1/C(=C\c2ccc([N+](=O)[O-])cc2)CS(=O)(=O)C/C1=C/c1ccc([N+](=O)[O-])cc1 | 3.15 µM | – | 0.483 µM and 2 µM | 2.95 µM | 0.808 µM and 1.5 µM | 25.6 µM | 15.5 µM | 0.519 µM and 4.12 µM | 0.315 µM | 1.84 µM | – | 0.0731 µM | 0.446 µM | 0.208 µM | 11.3 µM | –
12 | CCCCCCCCCCCCNC(=O)[C@H]1CSC(c2cc(Br)cs2)N1 (some centres not stated) | 2.47 µM | 1.76 µM | 2.26 µM | 8.66 µM | 1.31 µM | 9.41 µM | 2.23 µM | – | 1.11 µM | – | 0.774 µM | 1.05 µM | 1.98 µM | 0.665 µM | 2.73 µM | 1.06 µM
13 | O=NNc1ccc(Sc2ccc3ccccc3c2)cn1 | 89.4 µM | > 100 µM | > 100 µM | 77.9 µM | – | 31.2 µM | > 100 µM | > 100 µM | – | – | – | – | – | – | – | –
14 | C=C1C(=O)O[C@H]2[C@H]1CC/C(COC(=O)c1cccc3ccccc13)=C\CC[C@@]1(C)O[C@@H]21 | 6.45 µM | 12.8 µM | 2.68 µM | – | 3.35 µM | 3.76 µM | 23.7 µM | 2.94 µM | 2.19 µM | 1.47 µM | 2.95 µM | 1.39 µM | – | 1.53 µM | 1.98 µM | 11.6 µM
